Results reported in patent publication US5550165A, “Pharmaceutical compositions for the treatment of hereditary tyosinemia type I” (Zeneca Limited, priority 1991, dated 1996).

Tests used:
[1] = 90 day oral toxicity in rhesus monkeys; format: in vivo; settings: over 90 days, daily oral dose of 10 mg/kg
[2] = system: tyrosinaemia (type I) patients; experiment: Therapeutic evaluation in patients with tyrosinaemia (type I); format: in vivo, human
[3] = system: tyrosinaemia (type I) patients; experiment: as above; format: in vivo, human; remark: listed apart in the source
Experimental: Patients with an advanced form of the disease will be given the test composition (generally about 0.2-2.0 mg of active ingredient per kg body weight) orally. A blood sample will be taken daily during the first week and then less frequently at the discretion of the physician. Urine specimens will normally be collected daily. The indicators outlined below will be used to monitor the response to the test composition. The treatment will be maintained for up to 12 months if a clinically and biochemically satisfactory response is observed. If not, the dose of active ingredient administered will be increased stepwise to a maximum of about 2 mg/kg per day. Should any adverse indication occur, based on the biochemical monitoring or clinical assessment dosing will be stopped immediately.
The patients will be placed on a tyrosine-restricted diet with the aim of keeping plasma tyrosine concentrations below 500 μmol/L. A large increase in the tyrosine concentration in plasma is not expected to occur, but levels will be monitored throughout the dosing. Changes in the excretion of the biochemical markers mentioned below, such as succinylacetoacetate, succinylacetone and 5-aminolevulinic acid will be monitored, as will the effect on porphobilinogen synthase and α-fetoprotein concentration.
Tyrosine and Methionine--these amino acids will be determined in plasma by a standard technique using an amino-acid analyser.
Succinylacetoacetate and Succinylacetone--these compounds will be determined in urine by gas chromatography--mass spectrometry. Succinylacetone in plasma will be determined by measuring the inhibition of porphobilinogen synthase using a conventional assay.
5-Aminolevulinic acid--this will be determined in urine by a conventional colorimetric assay.
α-Fetoprotein--this will be determined in plasma by a conventional radioimmunoassay technique.
Porphobilinogen synthase--this will be determined in erythrocytes using a conventional colorimetric assay.
A patient was admitted to hospital after problems with slight nose bleedings and the parents noting swelling of the abdomen. Metabolic screening in hospital diagnosed tyrosinaemia (type I) based on the abnormal excretion of succinylacetone, succinylacetoacetate and 5-aminolevulinic acid in urine and a low activity of porphobilinogen synthase in erythrocytes. […] This was increased to 0.16 mg/kg b.w. after four days, and then to about 0.4 mg/kg by the end of the first 2 months, the dose being divided into two portions for morning and afternoon administration. The dose was then increased to about 0.6 mg/kg after a further 5 months.

[4] = Patient 2, capsule formulation 0.2 mg/kg b.w.
[5] = Patient 3, capsule formulation 0.2 mg/kg b.w., after 5 months 0.6 mg/kg b.w.
[6] = Patient 4, capsule formulation 0.2 mg/kg b.w., after 5 months 0.6 mg/kg b.w.
[7] = Patient 1, capsule formulation, 0.08 increased to about 0.6 mg/kg b.w.

O=C1CCCC(=O)C1C(=O)c1ccc(C(F)(F)F)cc1[N+](=O)[O-] [the Compound, 2-(2-nitro-4-trifluoromethylbenzoyl)-1,3-cyclohexanedione]
toxic or other adverse effects [1]: no significant toxic or other adverse effects
serum α-fetoprotein concentration after dosing ([2]; Patient 1, decreased from 7,200 μg/L during dosing): 96 µg/L
excretion of succinylacetone and succinylacetoacetate after treatment ([2]; Patient 1, urine, immediate decrease from 50 mmol/mol of creatinine): < 1 mmol/mol of creatinine
methionine concentration in plasma ([2]; Patient 1, very high initially, after start of treatment): dropped to normal levels very rapidly
clinical position of the patient ([2]; Patient 2, 0.2 mg/kg b.w.): improved
serum levels of α-fetoprotein after treatment ([2]; Patient 2, 0.2 mg/kg b.w., decreased from ca. 900 μg/L): 40 µg/L
serum levels of succinylacetone [2, 4]: decreased
urinary levels of 5-aminolevulinic acid [2, 4]: decreased
urinary levels of succinylacetone [2, 4]: decreased
porphobilinogen synthase activity ([2]; Patient 2, capsule formulation 0.2 mg/kg b.w., initial 3 month dosing period): increased to normal levels
clinical position of the patient ([2]; Patient 3, 0.2 then 0.6 mg/kg b.w.): improved
serum levels of α-fetoprotein after treatment ([2]; Patient 3, 0.2 then 0.6 mg/kg b.w., fell from ca. 900 μg/L): 11 µg/L
plasma levels of succinylacetone [2, 5]: substantially lowered
urinary levels of 5-aminolevulinic acid [2, 5]: substantially lowered
clinical position of the patient ([2]; Patient 4, 0.2 then 0.6 mg/kg b.w.): improved
serum levels of α-fetoprotein after treatment ([2]; Patient 4, 0.2 then 0.6 mg/kg b.w., fell from ca. 2000 μg/L): 48 µg/L
plasma levels of succinylacetone [2, 6]: substantially lowered
urinary levels of 5-aminolevulinic acid [2, 6]: substantially lowered
urinary levels of succinylacetone [2, 6]: substantially lowered
excretion of 5-aminolevulinic acid [3, 7]: concomitant decrease
porphobilinogen synthase activity in erythrocytes [3, 7]: immediate increase
overall clinical condition of the patient ([3]; Patient 1, during the treatment period): improved markedly
plasma succinylacetone levels ([3]; Patient 1, immediate decrease, after about 30 days): to the limit of detection
decrease of concentration of amino acids in urine ([3]; Patient 1, very high before treatment, after treatment): 5-10 times
urinary levels of succinylacetone [3, 5]: substantially lowered
